Results from paper PMC4774911, “Biochemical Screening of Five Protein Kinases from Plasmodium falciparum against 14,000 Cell-Active Compounds” (PLoS ONE, 2016).
pIC50: −log10 of the molar value. Several values for one entry are separate records, joined by “and”; a condition that tells them apart may be missing. Equal values may be shown once.

Assays:
Assay in all cases: biochemical
MAP3K2 = biological target: T1, MAP3K2 (Homo sapiens, UniProt Q9Y2U5)
T1 sequence (Q9Y2U5 1-619): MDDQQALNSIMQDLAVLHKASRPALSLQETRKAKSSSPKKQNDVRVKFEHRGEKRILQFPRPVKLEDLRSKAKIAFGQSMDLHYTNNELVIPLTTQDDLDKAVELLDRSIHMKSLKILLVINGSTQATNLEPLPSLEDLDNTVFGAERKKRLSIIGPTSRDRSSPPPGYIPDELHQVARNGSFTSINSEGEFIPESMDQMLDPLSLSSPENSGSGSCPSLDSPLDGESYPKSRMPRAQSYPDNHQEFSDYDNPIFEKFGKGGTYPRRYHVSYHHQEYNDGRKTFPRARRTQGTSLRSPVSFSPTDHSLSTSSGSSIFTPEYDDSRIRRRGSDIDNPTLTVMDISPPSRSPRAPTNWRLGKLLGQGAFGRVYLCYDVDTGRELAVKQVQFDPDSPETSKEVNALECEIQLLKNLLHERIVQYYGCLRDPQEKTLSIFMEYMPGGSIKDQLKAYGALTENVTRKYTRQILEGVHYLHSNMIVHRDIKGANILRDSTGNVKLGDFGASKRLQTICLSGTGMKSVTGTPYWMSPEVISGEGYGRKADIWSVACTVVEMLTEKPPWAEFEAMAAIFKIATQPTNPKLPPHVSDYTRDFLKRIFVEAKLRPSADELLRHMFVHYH

RIPK2 = RIPK2 (Homo sapiens, UniProt O43353)
CHEK2 = CHEK2 (Homo sapiens, UniProt O96017)
PTK2 = PTK2 (Homo sapiens, UniProt Q05397)
OXSR1 = OXSR1 (Homo sapiens, UniProt O95747)
PRKCB = PRKCB (Homo sapiens, UniProt P05771)
NTRK1 = NTRK1 (Homo sapiens, UniProt P04629)
GAK = biological target: T2, GAK (Homo sapiens, UniProt O14976)
T2 sequence (O14976 1-1311): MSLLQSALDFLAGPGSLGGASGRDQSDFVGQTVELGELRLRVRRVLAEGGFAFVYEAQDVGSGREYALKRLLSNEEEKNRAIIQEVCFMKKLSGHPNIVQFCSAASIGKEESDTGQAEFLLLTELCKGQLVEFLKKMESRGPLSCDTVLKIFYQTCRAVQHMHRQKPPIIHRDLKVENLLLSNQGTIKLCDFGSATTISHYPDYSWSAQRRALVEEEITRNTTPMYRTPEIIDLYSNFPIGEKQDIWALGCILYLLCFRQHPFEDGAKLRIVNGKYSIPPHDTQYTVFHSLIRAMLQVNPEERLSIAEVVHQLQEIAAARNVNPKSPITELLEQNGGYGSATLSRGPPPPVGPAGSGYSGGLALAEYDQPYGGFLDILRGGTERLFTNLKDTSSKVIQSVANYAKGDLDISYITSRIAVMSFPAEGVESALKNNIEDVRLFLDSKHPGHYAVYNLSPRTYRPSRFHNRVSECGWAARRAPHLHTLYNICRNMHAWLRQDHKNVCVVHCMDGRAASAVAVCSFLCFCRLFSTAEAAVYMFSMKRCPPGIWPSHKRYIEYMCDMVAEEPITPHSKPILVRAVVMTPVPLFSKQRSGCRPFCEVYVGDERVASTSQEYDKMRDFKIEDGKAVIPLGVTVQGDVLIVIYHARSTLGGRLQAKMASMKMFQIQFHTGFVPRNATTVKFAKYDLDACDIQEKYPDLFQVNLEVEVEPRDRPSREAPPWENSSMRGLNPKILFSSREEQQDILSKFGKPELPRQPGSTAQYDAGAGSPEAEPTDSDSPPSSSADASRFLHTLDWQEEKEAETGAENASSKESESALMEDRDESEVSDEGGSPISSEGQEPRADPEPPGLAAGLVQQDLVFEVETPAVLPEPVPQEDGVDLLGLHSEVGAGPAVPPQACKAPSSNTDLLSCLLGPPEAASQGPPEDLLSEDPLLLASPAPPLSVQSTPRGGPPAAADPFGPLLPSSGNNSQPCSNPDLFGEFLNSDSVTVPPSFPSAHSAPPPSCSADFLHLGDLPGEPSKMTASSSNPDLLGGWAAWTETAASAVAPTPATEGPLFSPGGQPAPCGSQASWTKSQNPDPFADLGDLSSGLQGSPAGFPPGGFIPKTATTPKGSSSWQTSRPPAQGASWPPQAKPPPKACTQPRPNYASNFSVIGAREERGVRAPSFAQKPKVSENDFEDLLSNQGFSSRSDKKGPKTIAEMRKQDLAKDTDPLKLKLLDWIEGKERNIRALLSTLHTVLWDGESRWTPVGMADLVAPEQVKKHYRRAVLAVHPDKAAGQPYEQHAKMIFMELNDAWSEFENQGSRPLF

MAP2K1 = MAP2K1 (Homo sapiens, UniProt Q02750)
STK17A = biological target: T3, STK17A (Homo sapiens, UniProt Q9UEE5)
T3 sequence (Q9UEE5 1-414): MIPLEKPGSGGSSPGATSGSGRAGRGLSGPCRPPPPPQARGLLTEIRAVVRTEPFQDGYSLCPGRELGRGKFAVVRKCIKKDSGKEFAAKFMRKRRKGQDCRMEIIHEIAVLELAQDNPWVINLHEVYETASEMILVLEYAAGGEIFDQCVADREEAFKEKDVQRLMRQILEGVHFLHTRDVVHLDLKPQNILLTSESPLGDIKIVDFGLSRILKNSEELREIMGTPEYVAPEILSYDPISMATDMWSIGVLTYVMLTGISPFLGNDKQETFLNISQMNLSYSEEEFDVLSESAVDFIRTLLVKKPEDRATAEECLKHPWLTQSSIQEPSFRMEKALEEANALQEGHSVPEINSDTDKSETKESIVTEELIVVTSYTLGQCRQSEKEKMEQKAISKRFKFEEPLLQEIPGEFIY

LIMK1 = LIMK1 (Homo sapiens, UniProt P53667)
Chain of LIMK1 (P53667 whole entry): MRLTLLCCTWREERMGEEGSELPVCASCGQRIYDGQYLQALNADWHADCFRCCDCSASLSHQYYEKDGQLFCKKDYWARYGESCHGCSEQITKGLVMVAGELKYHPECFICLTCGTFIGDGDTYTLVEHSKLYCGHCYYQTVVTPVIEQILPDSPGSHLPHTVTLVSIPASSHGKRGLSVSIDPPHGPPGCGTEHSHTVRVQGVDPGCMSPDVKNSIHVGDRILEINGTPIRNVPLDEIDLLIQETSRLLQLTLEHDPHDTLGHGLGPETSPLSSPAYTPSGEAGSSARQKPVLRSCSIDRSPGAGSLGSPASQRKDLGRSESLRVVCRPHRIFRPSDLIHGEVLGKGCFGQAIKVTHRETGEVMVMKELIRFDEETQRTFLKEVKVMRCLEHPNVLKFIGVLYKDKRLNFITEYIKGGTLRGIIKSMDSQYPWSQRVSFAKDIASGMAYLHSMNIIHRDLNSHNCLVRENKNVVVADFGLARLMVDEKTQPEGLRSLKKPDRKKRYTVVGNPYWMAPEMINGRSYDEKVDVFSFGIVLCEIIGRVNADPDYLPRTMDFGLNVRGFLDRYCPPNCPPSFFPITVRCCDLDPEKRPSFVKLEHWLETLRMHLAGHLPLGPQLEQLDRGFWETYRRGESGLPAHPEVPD

Chain of PRKCB (P05771 whole entry): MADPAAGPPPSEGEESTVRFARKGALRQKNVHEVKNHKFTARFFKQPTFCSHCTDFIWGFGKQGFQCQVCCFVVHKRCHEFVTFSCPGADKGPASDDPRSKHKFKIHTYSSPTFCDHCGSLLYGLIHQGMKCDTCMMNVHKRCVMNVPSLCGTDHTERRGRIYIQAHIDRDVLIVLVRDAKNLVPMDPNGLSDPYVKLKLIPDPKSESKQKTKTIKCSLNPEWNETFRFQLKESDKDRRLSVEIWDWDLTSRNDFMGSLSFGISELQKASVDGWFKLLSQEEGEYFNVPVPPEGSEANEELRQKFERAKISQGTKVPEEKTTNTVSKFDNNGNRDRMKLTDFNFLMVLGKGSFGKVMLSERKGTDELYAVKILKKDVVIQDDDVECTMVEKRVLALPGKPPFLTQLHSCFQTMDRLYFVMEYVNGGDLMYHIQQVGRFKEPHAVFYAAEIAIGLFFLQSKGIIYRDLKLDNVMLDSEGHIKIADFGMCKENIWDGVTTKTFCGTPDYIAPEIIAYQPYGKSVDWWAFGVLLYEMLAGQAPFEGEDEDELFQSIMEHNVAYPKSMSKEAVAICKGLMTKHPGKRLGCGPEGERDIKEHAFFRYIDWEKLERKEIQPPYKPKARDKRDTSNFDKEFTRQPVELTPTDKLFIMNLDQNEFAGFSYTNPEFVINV
Chain of CHEK2 (O96017 whole entry): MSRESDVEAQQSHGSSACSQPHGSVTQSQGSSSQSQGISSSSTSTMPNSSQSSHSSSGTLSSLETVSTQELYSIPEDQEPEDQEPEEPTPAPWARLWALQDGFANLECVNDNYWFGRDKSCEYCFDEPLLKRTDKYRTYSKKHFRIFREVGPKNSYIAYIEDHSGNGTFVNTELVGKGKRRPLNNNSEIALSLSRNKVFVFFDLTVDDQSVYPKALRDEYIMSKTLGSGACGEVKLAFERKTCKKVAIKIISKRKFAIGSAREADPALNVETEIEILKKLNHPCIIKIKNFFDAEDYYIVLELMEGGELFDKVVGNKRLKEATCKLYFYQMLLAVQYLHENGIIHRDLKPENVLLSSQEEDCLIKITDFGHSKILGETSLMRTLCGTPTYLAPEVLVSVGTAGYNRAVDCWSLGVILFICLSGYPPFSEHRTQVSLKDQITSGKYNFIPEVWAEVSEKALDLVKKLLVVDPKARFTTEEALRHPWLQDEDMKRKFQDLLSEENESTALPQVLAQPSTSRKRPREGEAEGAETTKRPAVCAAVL
Chain of PTK2 (Q05397 whole entry): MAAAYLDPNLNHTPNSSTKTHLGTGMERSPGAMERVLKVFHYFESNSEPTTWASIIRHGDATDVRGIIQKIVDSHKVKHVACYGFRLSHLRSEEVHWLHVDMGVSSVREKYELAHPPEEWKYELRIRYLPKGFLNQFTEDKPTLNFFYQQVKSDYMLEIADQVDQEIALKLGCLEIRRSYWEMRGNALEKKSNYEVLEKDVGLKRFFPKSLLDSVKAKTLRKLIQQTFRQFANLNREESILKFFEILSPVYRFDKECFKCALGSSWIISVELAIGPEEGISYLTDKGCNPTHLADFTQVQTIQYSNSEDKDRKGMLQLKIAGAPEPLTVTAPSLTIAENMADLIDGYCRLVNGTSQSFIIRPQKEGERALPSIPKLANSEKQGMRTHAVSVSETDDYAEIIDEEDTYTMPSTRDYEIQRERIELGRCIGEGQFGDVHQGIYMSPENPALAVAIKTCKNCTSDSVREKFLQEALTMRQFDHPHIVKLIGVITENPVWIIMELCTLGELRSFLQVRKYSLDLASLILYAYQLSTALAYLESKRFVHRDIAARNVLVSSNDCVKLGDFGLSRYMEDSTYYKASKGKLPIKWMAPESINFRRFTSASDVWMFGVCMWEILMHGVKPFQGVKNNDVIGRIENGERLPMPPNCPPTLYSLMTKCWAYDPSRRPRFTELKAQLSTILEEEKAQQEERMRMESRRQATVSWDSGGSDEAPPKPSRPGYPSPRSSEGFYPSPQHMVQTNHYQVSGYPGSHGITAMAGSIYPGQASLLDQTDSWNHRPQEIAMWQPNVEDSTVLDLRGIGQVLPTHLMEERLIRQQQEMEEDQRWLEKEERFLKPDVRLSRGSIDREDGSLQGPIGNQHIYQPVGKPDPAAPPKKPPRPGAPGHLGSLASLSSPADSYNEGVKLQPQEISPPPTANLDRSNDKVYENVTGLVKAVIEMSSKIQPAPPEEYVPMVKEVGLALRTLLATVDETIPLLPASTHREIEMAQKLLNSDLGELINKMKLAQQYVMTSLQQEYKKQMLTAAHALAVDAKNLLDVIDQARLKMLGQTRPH
Chain of MAP2K1 (Q02750 whole entry): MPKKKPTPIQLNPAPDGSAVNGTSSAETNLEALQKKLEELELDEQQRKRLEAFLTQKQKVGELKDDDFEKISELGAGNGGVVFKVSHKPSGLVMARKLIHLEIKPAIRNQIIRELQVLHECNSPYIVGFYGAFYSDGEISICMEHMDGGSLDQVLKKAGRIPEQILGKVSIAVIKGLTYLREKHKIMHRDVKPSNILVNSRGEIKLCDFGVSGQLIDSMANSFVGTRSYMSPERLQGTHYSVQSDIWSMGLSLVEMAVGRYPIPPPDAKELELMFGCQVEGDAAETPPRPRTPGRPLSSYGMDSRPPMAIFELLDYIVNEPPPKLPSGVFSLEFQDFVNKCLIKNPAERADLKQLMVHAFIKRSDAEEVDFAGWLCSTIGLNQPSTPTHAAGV
Chain of NTRK1 (P04629 whole entry): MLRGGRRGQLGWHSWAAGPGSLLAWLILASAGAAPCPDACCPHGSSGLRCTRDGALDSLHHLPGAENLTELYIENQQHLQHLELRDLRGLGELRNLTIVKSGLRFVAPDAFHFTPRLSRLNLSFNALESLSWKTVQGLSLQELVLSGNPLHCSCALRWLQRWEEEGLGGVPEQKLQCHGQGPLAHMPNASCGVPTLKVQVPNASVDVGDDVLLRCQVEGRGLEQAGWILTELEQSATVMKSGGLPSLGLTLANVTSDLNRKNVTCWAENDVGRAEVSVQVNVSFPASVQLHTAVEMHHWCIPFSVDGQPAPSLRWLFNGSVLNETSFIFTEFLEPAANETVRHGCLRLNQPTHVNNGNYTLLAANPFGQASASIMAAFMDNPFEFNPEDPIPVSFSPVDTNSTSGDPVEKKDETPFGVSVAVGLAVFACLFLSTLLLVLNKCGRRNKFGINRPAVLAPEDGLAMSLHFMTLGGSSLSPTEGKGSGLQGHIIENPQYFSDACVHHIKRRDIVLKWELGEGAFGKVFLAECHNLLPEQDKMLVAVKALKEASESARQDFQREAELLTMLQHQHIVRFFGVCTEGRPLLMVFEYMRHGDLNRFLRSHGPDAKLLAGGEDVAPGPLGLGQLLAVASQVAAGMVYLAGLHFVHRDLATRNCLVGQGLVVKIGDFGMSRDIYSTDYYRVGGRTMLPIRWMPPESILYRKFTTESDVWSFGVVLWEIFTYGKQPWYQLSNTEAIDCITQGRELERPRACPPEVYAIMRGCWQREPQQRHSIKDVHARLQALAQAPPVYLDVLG
Chain of RIPK2 (O43353 whole entry): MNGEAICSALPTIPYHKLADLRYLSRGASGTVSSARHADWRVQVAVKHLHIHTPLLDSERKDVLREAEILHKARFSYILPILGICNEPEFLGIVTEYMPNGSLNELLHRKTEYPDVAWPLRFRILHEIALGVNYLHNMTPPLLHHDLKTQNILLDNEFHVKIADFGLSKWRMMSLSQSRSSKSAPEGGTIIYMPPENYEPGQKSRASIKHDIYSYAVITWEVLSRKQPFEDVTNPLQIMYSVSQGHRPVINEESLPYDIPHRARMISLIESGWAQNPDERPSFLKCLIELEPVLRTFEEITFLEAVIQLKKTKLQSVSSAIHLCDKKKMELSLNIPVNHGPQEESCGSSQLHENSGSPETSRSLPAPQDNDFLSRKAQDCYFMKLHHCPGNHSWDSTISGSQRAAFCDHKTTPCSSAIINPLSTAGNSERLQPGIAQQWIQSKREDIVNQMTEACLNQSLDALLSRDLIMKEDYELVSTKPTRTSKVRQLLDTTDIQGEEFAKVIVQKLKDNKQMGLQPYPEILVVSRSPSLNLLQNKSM

SMILES	pIC50 (MAP3K2)	pIC50 (RIPK2)	pIC50 (CHEK2)	pIC50 (PTK2)	pIC50 (OXSR1)	pIC50 (PRKCB)	pIC50 (NTRK1)	pIC50 (GAK)	pIC50 (MAP2K1)	pIC50 (STK17A)	pIC50 (LIMK1)
CN(C)CC(O)COc1ccc(Nc2ncc([N+](=O)[O-])c(Nc3ccccc3O)n2)cc1.O=C(O)C(F)(F)F (stereo not drawn) [TCMDC-141399]	< 4.70	< 4.70	4.96	7.05 and 7.01	< 4.70	< 4.70	< 4.70	5.82 and 5.64	< 4.70	5.38	< 4.70
Cl.NCC1(c2nc(-c3ccc(Cl)c(O)c3)c(-c3ccncc3)[nH]2)CCCCC1 [TCMDC-141154]	5.92	7.37 and 7.28	< 4.70	< 4.70	< 4.70	4.92 and 5.23	< 4.70	< 4.70	5.01 and < 4.70	< 4.70	< 4.70
CN1CCN(c2ccc(Nc3ncc(C#N)c(Nc4ccccc4C(N)=O)n3)cc2)CC1.Cl [TCMDC-134116]	6.31	6.09	6.77	7.36 and 7.24	7.09 and 6.89	6.06	5.66 and 5.82	7.09 and 7.00	5.74 and 5.80	6.74	6.66
